Tested on: MV-4-11 cells
Test: Gene expression microarray analysis (Affymetrix PrimeView) and GSEA
Type: cell-based, human
Parameters: RFU PODN (11730768_x_at) / Fold change /veh PODN (11730768_x_at) / RFU LINC00158 (11744669_a_at) / Fold change /veh LINC00158 (11744669_a_at) / RFU DUSP10 (11751237_a_at) / Fold change /veh DUSP10 (11751237_a_at) / RFU ID3 (11757404_x_at) / Fold change /veh ID3 (11757404_x_at) / RFU PLEKHG5 (11737974_s_at) / Fold change /veh PLEKHG5 (11737974_s_at) / RFU LRRC4B (11730491_at) / Fold change /veh LRRC4B (11730491_at) / RFU GIMAP4 (11747438_a_at) / Fold change /veh GIMAP4 (11747438_a_at) / RFU KRT8 (11758183_x_at) / Fold change /veh KRT8 (11758183_x_at) / RFU CNN1 (11734310_a_at) / Fold change /veh CNN1 (11734310_a_at) / RFU VPS37D (11726825_at) / Fold change /veh VPS37D (11726825_at) / RFU C10orf10 (11716522_x_at) / Fold change /veh C10orf10 (11716522_x_at) / RFU KIR2DL2 /// KIR2DL4 /// KIR2DL5A /// KIR2DL5B /// KIR2DS1 /// KIR2DS2 /// KIR2DS3 /// KIR2DS4 /// KIR3DL3 /// KIR3DL3 /// KIR3DS1 (11738374_at) / Fold change /veh KIR2DL2 /// KIR2DL4 /// KIR2DL5A /// KIR2DL5B /// KIR2DS1 /// KIR2DS2 /// KIR2DS3 /// KIR2DS4 /// KIR3DL3 /// KIR3DL3 /// KIR3DS1 (11738374_at) / RFU C1QL1 (11718748_at) / Fold change /veh C1QL1 (11718748_at) / RFU TMPRSS4 (11747572_a_at) / Fold change /veh TMPRSS4 (11747572_a_at) / RFU HAMP (11756126_x_at) / Fold change /veh HAMP (11756126_x_at) / RFU RNFT2 (11725882_a_at) / Fold change /veh RNFT2 (11725882_a_at) / RFU NR4A2 (11747474_a_at) / Fold change /veh NR4A2 (11747474_a_at) / RFU ABCC12 (11746883_a_at) / Fold change /veh ABCC12 (11746883_a_at) / RFU TMEM136 (11760407_x_at) / Fold change /veh TMEM136 (11760407_x_at) / RFU CLDN22 /// WWC2 (11732394_at) / Fold change /veh CLDN22 /// WWC2 (11732394_at) / RFU HLA-DPB1 (11760878_x_at) / Fold change /veh HLA-DPB1 (11760878_x_at) / RFU SPINT1 (11716480_a_at) / Fold change /veh SPINT1 (11716480_a_at) / RFU GAP43 (11754022_s_at) / Fold change /veh GAP43 (11754022_s_at) / RFU A4GNT (11735810_at) / Fold change /veh A4GNT (11735810_at) / RFU PRB3 (11715151_x_at) / Fold change /veh PRB3 (11715151_x_at) / RFU TUBB4B (11761932_at) / Fold change /veh TUBB4B (11761932_at) / RFU CAPN14 (11732068_a_at) / Fold change /veh CAPN14 (11732068_a_at) / RFU TMCC2 (11721928_a_at) / Fold change /veh TMCC2 (11721928_a_at) / RFU IRGQ (11745062_a_at) / Fold change /veh IRGQ (11745062_a_at) / RFU FAM174B (11720279_a_at) / Fold change /veh FAM174B (11720279_a_at) / RFU TMPRSS4 (11748680_a_at) / Fold change /veh TMPRSS4 (11748680_a_at) / RFU FAM212B (11763350_a_at) / Fold change /veh FAM212B (11763350_a_at) / RFU PLEKHG5 (11743358_a_at) / Fold change /veh PLEKHG5 (11743358_a_at) / RFU ZSCAN30 (11745921_a_at) / Fold change /veh ZSCAN30 (11745921_a_at) / RFU CMKLR1 (11741424_a_at) / Fold change /veh CMKLR1 (11741424_a_at) / RFU LOC101060620 /// MAPK8IP1 (11723275_at) / Fold change /veh LOC101060620 /// MAPK8IP1 (11723275_at) / RFU SPTSSB (11747773_x_at) / Fold change /veh SPTSSB (11747773_x_at) / RFU PRSS12 (11739890_at) / Fold change /veh PRSS12 (11739890_at) / RFU BIN1 (11741810_x_at) / Fold change /veh BIN1 (11741810_x_at) / RFU WNT11 (11732464_a_at) / Fold change /veh WNT11 (11732464_a_at) / RFU C10orf10 (11716521_a_at) / Fold change /veh C10orf10 (11716521_a_at) / RFU C5orf56 (11738089_at) / Fold change /veh C5orf56 (11738089_at) / RFU CYB561 (11721691_x_at) / Fold change /veh CYB561 (11721691_x_at) / RFU ANKRD19P (11752326_a_at) / Fold change /veh ANKRD19P (11752326_a_at) / RFU OR2T12 /// OR2T33 /// OR2T8 (11738714_s_at) / Fold change /veh OR2T12 /// OR2T33 /// OR2T8 (11738714_s_at) / RFU VCAN (11748164_a_at) / Fold change /veh VCAN (11748164_a_at) / RFU JSRP1 (11732532_at) / Fold change /veh JSRP1 (11732532_at) / RFU KRTAP10-11 (11738290_x_at) / Fold change /veh KRTAP10-11 (11738290_x_at) / RFU MYO3A (11730013_a_at) / Fold change /veh MYO3A (11730013_a_at) / RFU EBF3 (11725865_a_at) / Fold change /veh EBF3 (11725865_a_at) / RFU CAMK2N1 (11719241_x_at) / Fold change /veh CAMK2N1 (11719241_x_at) / RFU C5orf56 (11738088_a_at) / Fold change /veh C5orf56 (11738088_a_at) / RFU OLFML3 (11715873_a_at) / Fold change /veh OLFML3 (11715873_a_at) / RFU LOC100653217 /// NTM (11731650_a_at) / Fold change /veh LOC100653217 /// NTM (11731650_a_at) / RFU MAPK11 (11762145_a_at) / Fold change /veh MAPK11 (11762145_a_at) / RFU FIZ1 (11724087_x_at) / Fold change /veh FIZ1 (11724087_x_at) / RFU OASL (11726364_x_at) / Fold change /veh OASL (11726364_x_at) / RFU SOX15 (11748057_x_at) / Fold change /veh SOX15 (11748057_x_at) / RFU CD79A (11719716_a_at) / Fold change /veh CD79A (11719716_a_at) / RFU HIST1H1D (11736915_at) / Fold change /veh HIST1H1D (11736915_at) / RFU CASKIN2 (11723855_a_at) / Fold change /veh CASKIN2 (11723855_a_at) / RFU LOC730098 (11760151_x_at) / Fold change /veh LOC730098 (11760151_x_at) / RFU OR4N2 (11742367_at) / Fold change /veh OR4N2 (11742367_at) / RFU PRRT2 (11749266_a_at) / Fold change /veh PRRT2 (11749266_a_at) / RFU SNX32 (11753110_a_at) / Fold change /veh SNX32 (11753110_a_at) / RFU CDHR5 (11726645_a_at) / Fold change /veh CDHR5 (11726645_a_at) / RFU RCAN1 (11760418_a_at) / Fold change /veh RCAN1 (11760418_a_at) / RFU FAM167A (11723789_a_at) / Fold change /veh FAM167A (11723789_a_at) / RFU FAM26E (11764081_at) / Fold change /veh FAM26E (11764081_at) / RFU ISYNA1 (11749810_s_at) / Fold change /veh ISYNA1 (11749810_s_at) / RFU ACY1 (11761880_at) / Fold change /veh ACY1 (11761880_at) / RFU 11764098_at / Fold change /veh 11764098_at / RFU SAMD14 (11745864_x_at) / Fold change /veh SAMD14 (11745864_x_at) / RFU NPB (11741838_a_at) / Fold change /veh NPB (11741838_a_at) / RFU TMPRSS6 (11731388_a_at) / Fold change /veh TMPRSS6 (11731388_a_at) / RFU KRTAP10-2 (11738614_at) / Fold change /veh KRTAP10-2 (11738614_at) / RFU ARHGAP8 /// PRR5-ARHGAP8 (11727945_x_at) / Fold change /veh ARHGAP8 /// PRR5-ARHGAP8 (11727945_x_at) / RFU KRTAP5-7 /// NADSYN1 (11734609_at) / Fold change /veh KRTAP5-7 /// NADSYN1 (11734609_at) / RFU RASL12 (11751679_a_at) / Fold change /veh RASL12 (11751679_a_at) / RFU CDKN2B (11736163_a_at) / Fold change /veh CDKN2B (11736163_a_at) / RFU PRF1 (11729649_at) / Fold change /veh PRF1 (11729649_at) / RFU, ZNF638 /// ZNF638-IT1 / Fold change vs veh, ZNF638 /// ZNF638-IT1 / RFU, PANK3 / Fold change vs veh, PANK3 / RFU, SH3YL1 / Fold change vs veh, SH3YL1 / RFU, ZEB2 / Fold change vs veh, ZEB2 / RFU, NRIP1 / Fold change vs veh, NRIP1 / RFU, PTTG1IP / Fold change vs veh, PTTG1IP / RFU, CAPN2 / Fold change vs veh, CAPN2 / RFU, MED14 / Fold change vs veh, MED14 / RFU, SNORA58 / Fold change vs veh, SNORA58 / RFU, C1orf63 / Fold change vs veh, C1orf63 / RFU, LRRFIP1 / Fold change vs veh, LRRFIP1 / RFU, NDUFAF7 / Fold change vs veh, NDUFAF7 / RFU, SLC12A2 / Fold change vs veh, SLC12A2 / RFU, IBTK / Fold change vs veh, IBTK / RFU, ESF1 / Fold change vs veh, ESF1 / Fold change vs veh, TMEM50B / RFU, TAOK1 / Fold change vs veh, TAOK1 / RFU, ACBD3 / Fold change vs veh, ACBD3 / RFU, TMA16 / Fold change vs veh, TMA16 / RFU, RWDD3 / Fold change vs veh, RWDD3 / RFU, BCAT1 / Fold change vs veh, BCAT1 / RFU, EDEM3 / Fold change vs veh, EDEM3 / RFU, TMEM33 / Fold change vs veh, TMEM33 / RFU, WDR75 / Fold change vs veh, WDR75 / RFU, AHCTF1 / Fold change vs veh, AHCTF1 / RFU, TFRC / Fold change vs veh, TFRC / RFU, ZDHHC17 / Fold change vs veh, ZDHHC17 / RFU, NOM1 / Fold change vs veh, NOM1 / RFU, ARL8B / Fold change vs veh, ARL8B / RFU, ZBTB11 / Fold change vs veh, ZBTB11 / RFU, TAMM41 / Fold change vs veh, TAMM41 / RFU, KIAA1704 /// LOC100996395 / Fold change vs veh, KIAA1704 /// LOC100996395 / RFU, ING1 / Fold change vs veh, ING1 / RFU, TRMT61B / Fold change vs veh, TRMT61B / RFU, FUBP3 / Fold change vs veh, FUBP3 / RFU, TP53 / Fold change vs veh, TP53 / RFU, TNKS2 / Fold change vs veh, TNKS2 / RFU, ZFP14 / Fold change vs veh, ZFP14 / RFU, ACTR2 / Fold change vs veh, ACTR2 / RFU, PPP3R1 / Fold change vs veh, PPP3R1 / RFU, PIK3R1 / Fold change vs veh, PIK3R1 / RFU, HNRNPA1 / Fold change vs veh, HNRNPA1 / RFU, RNF170 / Fold change vs veh, RNF170 / RFU, ZNF28 / Fold change vs veh, ZNF28 / RFU, RNGTT / Fold change vs veh, RNGTT / RFU, OGT / Fold change vs veh, OGT / RFU, BRD1 / Fold change vs veh, BRD1 / RFU, MARS / Fold change vs veh, MARS / RFU, ZNF655 / Fold change vs veh, ZNF655 / RFU, FAHD1 / Fold change vs veh, FAHD1 / RFU, BDP1 / Fold change vs veh, BDP1 / RFU, LRRCC1 / Fold change vs veh, LRRCC1 / RFU, ARID1A / Fold change vs veh, ARID1A / RFU, ZNF146 / Fold change vs veh, ZNF146 / RFU, ZNF330 / Fold change vs veh, ZNF330 / RFU, GPN3 / Fold change vs veh, GPN3 / RFU, C9orf123 / Fold change vs veh, C9orf123 / RFU, N4BP2L2 / Fold change vs veh, N4BP2L2 / RFU, ARFIP1 / Fold change vs veh, ARFIP1 / RFU, FAM179B / Fold change vs veh, FAM179B / RFU, BCL10 / Fold change vs veh, BCL10 / RFU, UHRF1BP1L / Fold change vs veh, UHRF1BP1L / RFU, BET1 / Fold change vs veh, BET1 / RFU, CNOT2 / Fold change vs veh, CNOT2 / RFU, ZNF268 / Fold change vs veh, ZNF268 / Fold change vs veh, ZNF507 / RFU, DGCR2 / Fold change vs veh, DGCR2 / RFU, WDSUB1 / Fold change vs veh, WDSUB1 / Fold change vs veh, HSP90B1 /// MIR3652 / RFU, ADSS / Fold change vs veh, ADSS / RFU, GK / Fold change vs veh, GK / RFU, ZNF148 / Fold change vs veh, ZNF148 / RFU, TAF9 / Fold change vs veh, TAF9 / RFU, SLC1A5 / Fold change vs veh, SLC1A5 / RFU, SLMO2 / Fold change vs veh, SLMO2 / RFU, ABCC4 / Fold change vs veh, ABCC4 / RFU, LOC101060439 /// RAP1B / Fold change vs veh, LOC101060439 /// RAP1B / RFU, RFX7 / Fold change vs veh, RFX7 / RFU, GTPBP10 / Fold change vs veh, GTPBP10 / RFU, CNEP1R1 / Fold change vs veh, CNEP1R1 / RFU, BIVM-ERCC5 /// ERCC5 / Fold change vs veh, BIVM-ERCC5 /// ERCC5 / RFU, ILF3 / Fold change vs veh, ILF3 / RFU 11762660_at / Fold change /veh 11762660_at / RFU VCAN (11757783_s_at) / Fold change /veh VCAN (11757783_s_at) / RFU DDX43 (11728927_at) / Fold change /veh DDX43 (11728927_at) / RFU KRT8 (11758188_x_at) / Fold change /veh KRT8 (11758188_x_at) / RFU NKD1 (11759106_at) / Fold change /veh NKD1 (11759106_at) / RFU SRD5A1 (11742802_a_at) / Fold change /veh SRD5A1 (11742802_a_at) / RFU TPSAB1 /// TPSB2 (11721975_s_at) / Fold change /veh TPSAB1 /// TPSB2 (11721975_s_at) / RFU GSTM3 (11746129_a_at) / Fold change /veh GSTM3 (11746129_a_at) / RFU IL23R (11737362_x_at) / Fold change /veh IL23R (11737362_x_at) / RFU TMEM51 (11727254_a_at) / Fold change /veh TMEM51 (11727254_a_at) / RFU PIWIL2 (11732686_x_at) / Fold change /veh PIWIL2 (11732686_x_at) / RFU ORM1 (11744905_x_at) / Fold change /veh ORM1 (11744905_x_at) / RFU CCDC152 (11743942_at) / Fold change /veh CCDC152 (11743942_at) / RFU ECM1 (11717891_a_at) / Fold change /veh ECM1 (11717891_a_at) / RFU IL23R (11748794_a_at) / Fold change /veh IL23R (11748794_a_at) / RFU TNFAIP8L3 (11732012_x_at) / Fold change /veh TNFAIP8L3 (11732012_x_at) / RFU MBOAT4 (11741988_at) / Fold change /veh MBOAT4 (11741988_at) / RFU 11764193_at / Fold change /veh 11764193_at / RFU TMEM53 (11763286_at) / Fold change /veh TMEM53 (11763286_at) / RFU MAGEB2 (11727129_at) / Fold change /veh MAGEB2 (11727129_at) / RFU TMEM200A (11744735_a_at) / Fold change /veh TMEM200A (11744735_a_at) / RFU CCDC152 (11751479_a_at) / Fold change /veh CCDC152 (11751479_a_at) / RFU FAM211A (11726209_a_at) / Fold change /veh FAM211A (11726209_a_at) / RFU RGS16 (11746705_a_at) / Fold change /veh RGS16 (11746705_a_at) / RFU VCAN (11755009_s_at) / Fold change /veh VCAN (11755009_s_at) / RFU RHOB (11743442_s_at) / Fold change /veh RHOB (11743442_s_at) / RFU RGS16 (11720943_a_at) / Fold change /veh RGS16 (11720943_a_at) / RFU RGS16 (11720944_at) / Fold change /veh RGS16 (11720944_at) / RFU, VPS4B / Fold change vs veh, VPS4B / RFU, CREB1 / Fold change vs veh, CREB1 / RFU, DNAJC13 / Fold change vs veh, DNAJC13 / RFU, GNAQ / Fold change vs veh, GNAQ / RFU, CDK5R1 / Fold change vs veh, CDK5R1 / RFU, ZRANB3 / Fold change vs veh, ZRANB3 / RFU, CUL4A / Fold change vs veh, CUL4A / RFU, CCNY / Fold change vs veh, CCNY / RFU, UFL1 / Fold change vs veh, UFL1 / RFU, COG3 / Fold change vs veh, COG3 / RFU, DIAPH2 / Fold change vs veh, DIAPH2 / RFU, SKA2 / Fold change vs veh, SKA2 / RFU, AFF3 / Fold change vs veh, AFF3 / RFU, LMF1 / Fold change vs veh, LMF1 / RFU, IPO11 / Fold change vs veh, IPO11 / RFU, DFFB / Fold change vs veh, DFFB / RFU, FOXP1 / Fold change vs veh, FOXP1 / RFU, CARD8 / Fold change vs veh, CARD8 / RFU, STRN3 / Fold change vs veh, STRN3 / RFU, ADK / Fold change vs veh, ADK / RFU, RASSF2 / Fold change vs veh, RASSF2 / RFU, WIPF1 / Fold change vs veh, WIPF1 / RFU, LARP1B / Fold change vs veh, LARP1B / RFU, RASA1 / Fold change vs veh, RASA1 / RFU, RB1 / Fold change vs veh, RB1 / RFU, PPFIA1 / Fold change vs veh, PPFIA1 / RFU, MAT2A / Fold change vs veh, MAT2A / RFU, CCT5 / Fold change vs veh, CCT5 / RFU, WDR92 / Fold change vs veh, WDR92 / RFU, CUX1 / Fold change vs veh, CUX1 / RFU, TTC7A / Fold change vs veh, TTC7A / RFU, TMEM135 / Fold change vs veh, TMEM135 / RFU, DEPTOR / Fold change vs veh, DEPTOR / RFU, CPM / Fold change vs veh, CPM / RFU, DNAJB6 / Fold change vs veh, DNAJB6 / RFU, CACNA2D3 / Fold change vs veh, CACNA2D3 / RFU, DTX4 / Fold change vs veh, DTX4 / RFU, TFCP2 / Fold change vs veh, TFCP2 / RFU, GMCL1 /// GMCL1P1 / Fold change vs veh, GMCL1 /// GMCL1P1 / RFU, AEBP2 / Fold change vs veh, AEBP2 / RFU, SNHG1 /// SNORD22 /// SNORD25 /// SNORD26 /// SNORD27 /// SNORD28 /// SNORD29 /// SNORD31 / Fold change vs veh, SNHG1 /// SNORD22 /// SNORD25 /// SNORD26 /// SNORD27 /// SNORD28 /// SNORD29 /// SNORD31 / Fold change (Aza/veh), C12orf56 (ProbeSet 11735607_a_at) / Fold change (ACY-1035/veh), C12orf56 (ProbeSet 11735607_a_at) / Fold change (Aza/veh), FGFR1OP (ProbeSet 11751329_s_at) / Fold change (ACY-1035/veh), FGFR1OP (ProbeSet 11751329_s_at) / Fold change (Aza/veh), VPS36 (ProbeSet 11739960_a_at) / Fold change (ACY-1035/veh), VPS36 (ProbeSet 11739960_a_at) / RFU SYPL1 (11715823_x_at) / Fold change /veh SYPL1 (11715823_x_at) / RFU IGFBP7 (11715501_s_at) / Fold change /veh IGFBP7 (11715501_s_at) / RFU REEP3 (11722064_at) / Fold change /veh REEP3 (11722064_at) / RFU IGLL1 (11728026_x_at) / Fold change /veh IGLL1 (11728026_x_at): dose or concentration left out as unconfirmed
Conditions: ProbeSet 11743510_at; LIST D

**Q.** How did the “Fold change vs veh, UFL1” value turn out when Nc1ccc(-c2cccs2)cc1NC(=O)c1ccc2c(c1)cc(C1CC1)n2CCN1CCOCC1 [ACY-1035] was run?
**A.** Its value is 0.85.

Reference: PMC5218480 (PLoS ONE, 2017)
